Measurements published in patent US7465453B2, “Polypeptide fragments of CKLF1” (Peking University, priority 2004, dated 2008).
“Also recorded” adds a separate entry of the source.

Experiments:
[1] = target: T1, CCR5 (Homo sapiens, UniProt P51681); experiment: Calcium flux assay in CCR5-transfected HEK293 cells; type: cell-based; conditions: for calcium flux: CCR5-transfected HEK293 cells, 167 nM C27 or C19, 100 nM RANTES; for desensitization of transfectants to subsequent RANTES treatment: CCR5 transfectants, first 167 nM peptide, then 100 nM RANTES
T1 construct: The cDNA fragments covering the open reading frames for various chemokine receptors were obtained as follows; expressed in transfected cells; host or cells: HEK293 (transient, electroporation)
Excerpt: (§1) The cDNA fragments covering the open reading frames for various chemokine receptors were obtained as follows. CCR4, CCR5 and CCR6 receptors were cloned from a K562 cell cDNA library by polymerase chain reaction (PCR). The primers were designed using the sequences from the following GenBank™ submissions: CCR4 (NM_005508.2), CCR5 (NM_000579) and CCR6 (AY242126). The fragments were cloned into an expression vector pcDI (modified in our lab from pcDNA3 vector (Invitrogen), in which the part between BgI II-Kpn I was replaced by the fragment of pCl vector (Promega) digested with BgI II-Kpn I) or pEGFP-N1 vector (CLONTECH) for efficient expression in HEK293 cells. The sequences coding receptors in expression plasmids were confirmed by DNA sequencing, which is consistent with the sequence submitted in GenBank™.
(§2) HEK293 cells were grown in RPMI 1640 supplemented with 10% heat-inactivated FBS, penicillin (100 U/ml) and streptomycin (100 μg/ml). Every 4×10^6 HEK293 cells in 400 μl were transiently transfected by electroporation with 15 μg of the expression plasmid at 120 V, 20 ms using an electric pulse generator (Electro Square Porator ECM 830, BTX, San Diego, Calif.), and calcium mobilization assay and chemotaxis assays were performed 48 hours later.
(§3) HEK293 cells transfected with pcDI-CCR4 or pcDI-CCR5 were grown in specialized glass-bottom microwell dishes (MatTek Corporation, U.S.A.) and loaded with 10 μM fluo-3/AM in HEPES-buffered saline at 37° C. for 1 hour in the dark. The cells were rinsed with HEPES-buffered saline and stimulated with 167 nM secreted CKLF1 peptides and 100 nM TARC or RANTES, respectively. Fluorescence was monitored at 488 nm (excitation wavelength) and 530 nm (emission wavelength) every 5 second using a Leica TCS-NT confocal fluorescence microscope with a 40× oil immersion lens (Wetzler, Heidelberg, Germany). The measurement was completed at room temperature and each field of cells was selected at random. Images were collected at 5 second intervals for 405 seconds. The images were analyzed for relative fluorescence using Leica confocal software. The relative fluorescence was determined using Microsoft Excel. All calcium flux assays were performed in the presence of extracellular calcium (in the absence of EDTA or EGTA) in the assay buffers. Therefore, both intracellular calcium release and extracellular calcium influx were analyzed.

[2] = system: U937 cells; experiment: Chemotaxis of U937 cells; type: cell-based; conditions: for migration (chemotaxis) of U937 cells: C19, C27, RANTES: U937 cells stimulated by 30 ng/ml IFN-γ
Protocol: The chemotaxis assay was performed using a 48-well microchemotaxis chamber (Neutroprobe, Cabin John, Md., U.S.A.). U937 cells were stimulated by 30 ng/ml IFN-γ for 4 days because IFN-γ could increase the expression of chemokine receptors CCR1, CCR3, and CCR5 in U937 cells. Then part cells were incubated with mouse anti CCR5 100 μg/ml, and/or rat anti CCR3 10 μg/ml for 30 minutes at 37° C., and corresponding mouse IgG and rat IgG as controls. Chemoattractants RANTES, C19 and C27 were diluted in HEPES-buffered RPMI 1640 medium supplemented with 0.5% BSA to indicate concentration, and placed in the lower wells (28 μl/well). U937 cells stimulated by IFN-γ were resuspended in the same medium at 1×10^6 cells/ml and added to the upper wells (50 μl/well), which were separated from the lower wells by a polyvinylpyrrolidone-free polycarbonate filter with 5-μm pores pre-coated by 0.001% fibronectin. The chamber was incubated for 2 hours at 37° C. in 5% CO2 and 95% air. Filters were removed from the chamber, washed, fixed, and stained with Three Step Stain Set. Cells that migrated were counted in 5 randomly selected high power fields (400×) per well. The group with no Chemoattractants in the lower wells was used as a control. All samples were assayed twice at least. The chemotactic index (CI) was calculated from the number of cells that migrated to the control. Significant chemotaxis was defined as CI>2.

[3] = system: OVA-sensitized murine asthma model; experiment: OVA-sensitized murine asthma model; type: in vivo, C57BL/6 mice; conditions: for airway hyperreactivity: OVA-sensitized and challenged mice, i.p. pretreatment
Protocol: C57BL/6 mice (20-25 g) of either sex were sensitized by an i.p. injection (100 μl) of 20 μg chicken OVA (Sigma-Aldrich, St. Louis, Mo.) emulsified in Imject alum (2.25 mg Al(OH)3/2 mg Mg(OH)2) (Pierce, Rockfield, Ill.) on days 0 and 14. Mice were injected with 1, 10, or 100 μg of C27 or C19 i.p, and thirty minutes later, these mice were subsequently challenged with an aerosol generated from 1% OVA in saline (OVA), or saline alone, for 20 min by ultrasonic nebulization (DeVilbiss, Somerset, Pa.). This procedure was repeated daily on days 24, 25, and 26. The mice were assessed on day 28.

[4] = target: T2, CCR4 (Homo sapiens, UniProt P51679); experiment: Calcium flux assay in CCR4-transfected HEK293 cells; type: cell-based; conditions: for calcium flux: CCR4-transfected HEK293 cells, 167 nM C27 or C19, 100 nM TARC; for desensitization of transfectants to subsequent TARC treatment: CCR4 transfectants, first 167 nM peptide, then 100 nM TARC
T2 construct: The cDNA fragments covering the open reading frames for various chemokine receptors were obtained as follows; expressed in transfected cells; host or cells: HEK293 (transient, electroporation)
T2 sequence (P51679 1-360): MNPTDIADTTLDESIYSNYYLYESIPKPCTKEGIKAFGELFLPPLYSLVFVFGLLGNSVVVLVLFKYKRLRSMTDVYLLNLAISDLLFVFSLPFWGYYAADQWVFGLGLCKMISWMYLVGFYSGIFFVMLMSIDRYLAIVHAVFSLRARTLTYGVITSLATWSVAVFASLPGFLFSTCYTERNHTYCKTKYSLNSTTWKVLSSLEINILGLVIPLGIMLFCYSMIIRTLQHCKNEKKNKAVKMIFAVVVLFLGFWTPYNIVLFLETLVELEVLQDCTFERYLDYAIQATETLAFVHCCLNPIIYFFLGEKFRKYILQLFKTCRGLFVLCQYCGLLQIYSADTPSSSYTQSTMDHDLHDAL
Excerpt: as §1, §2, §3

T1 sequence (P51681 whole entry, the tested form may be a part): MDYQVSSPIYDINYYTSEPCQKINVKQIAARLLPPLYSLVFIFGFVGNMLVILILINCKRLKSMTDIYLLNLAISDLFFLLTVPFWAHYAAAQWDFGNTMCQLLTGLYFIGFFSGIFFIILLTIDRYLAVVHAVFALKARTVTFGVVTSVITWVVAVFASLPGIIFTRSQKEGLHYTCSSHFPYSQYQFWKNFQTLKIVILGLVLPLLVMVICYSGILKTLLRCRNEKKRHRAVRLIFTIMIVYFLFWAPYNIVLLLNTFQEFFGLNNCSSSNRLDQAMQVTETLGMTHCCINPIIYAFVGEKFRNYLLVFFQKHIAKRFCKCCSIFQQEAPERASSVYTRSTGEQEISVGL

| Substance | calcium flux [1] | desensitization of transfectants to subsequent RANTES treatment [1] | migration (chemotaxis) of U937 cells [2] | chemotactic activity after neutralization of chemokine receptors ([2]; IFN-γ-stimulated U937 cells, mouse anti CCR5 and/or rat anti CCR3) | airway hyperreactivity [3] | inhibition of the eosinophil infiltration into the BAL fluid ([3]; doses ranging from 1 to 100 μg/mouse i.p., vs positive control group) | calcium flux [4] | desensitization of transfectants to subsequent TARC treatment [4] | inhibition of eosinophil recruitment into the airways (BAL fluid analysis) ([3]; 1 μg/mouse i.p., vs positive control group) | inhibition of eosinophil recruitment into the airways (BAL fluid analysis) ([3]; 10 μg/mouse i.p., vs positive control group) | inhibition of eosinophil recruitment into the airways (BAL fluid analysis) ([3]; 100 μg/mouse i.p., vs positive control group) |
| --- | --- | --- | --- | --- | --- | --- | --- | --- | --- | --- | --- |
| ALIYRKL LFNPSGPYQKKPVHEKKEVL (ALIYRKLLFNPSGPYQKKPVHEKKEVL; listed as Homo sapiens) [C27] | a strong calcium flux | could desensitize | could induce migration | had no chemotactic activity; also recorded: obviously inhibited | small, but not statistically significant, increase | did not demonstrate any inhibition | could induce calcium flux | could desensitize |  |  |  |
| FNPSGPYQKKPVHEKKEVL (listed as Homo sapiens) [C19] | a strong calcium flux | could desensitize | could induce migration |  | significant decrease |  | could induce calcium flux | could desensitize | 78% | 69% | 74% |
